Reference: patent publication US11083724B2, “Rimegepant for CGRP related disorders” (Biohaven Pharmaceutical Holding Company Ltd., priority 2018, dated 2021)

System: subjects with Acute Migraines
Experiment: Study 302 (BHV3000-302, NCT03237845): Phase 3 double-blind placebo-controlled trial, rimegepant 75 mg tablet, acute treatment of migraine
Type: in vivo, human
Settings: for Percent (%) difference of Patients Pain Free: Rimegepant versus Placebo: no rescue meds, Kaplan-Meier estimates; for Freedom from MBS at 2 hours / Pain Freedom (pain-free) at 2 hours: N = 537
Protocol: Clinical Trial—BHV3000-302: Phase 3: Double-Blind, Randomized, Placebo-Controlled, Safety and Efficacy Trial of BHV-3000 (Rimegepant) for the Acute Treatment of Migraine (ClinicalTrials.gov Identifier: NCT03237845) A phase 3 clinical study was conducted with 1503 participants, as follows. The purpose of this study is to compare the efficacy of BHV-3000 (rimegepant) versus placebo in subjects with Acute Migraines Study Design • Study Type: Interventional (Clinical Trial) • Actual Enrollment: 1503 participants • Allocation: Randomized • Intervention Model: Parallel Assignment • Intervention Model Description: Double-blind to Sponsor, Investigator and Subject • Masking: Triple (Participant, Care Provider, Investigator) • Masking Description: Double-blind to Sponsor, Investigator and Subject • Primary Purpose: Treatment • Official Title: BHV3000-302: Phase 3: Double-Blind, Randomized, Placebo-Controlled, Safety and Efficacy Trial of BHV-3000 (Rimegepant) for the Acute Treatment of Migraine • Actual Study Start Date: Jul. 26, 2017 • Primary Completion Date: Jan. 25, 2018 • Study Completion Date: Jan. 31, 2018 Arms and Interventions Outcome Measures Primary Outcome Measures: • 1. Pain Freedom of rimegepant (75 mg tablet) compared with placebo in the acute treatment of migraine will be measured using the number of evaluable subjects that report no pain at 2 hours post-dose. [Time Frame: Two hours post dose] • Pain will be measured on a 4 point Likert scale (0=none, 1=mild, 2=moderate, 3=severe) • 2. Freedom from the most bothersome symptom (MBS) of rimegepant (75 mg tablet) compared with placebo will be measured using the number of evaluable subjects that report the absence of their MBS at 2 hours post-dose. [Time Frame: Two hours post dose] • The MBS (nausea, phonophobia or photophobia) will measured using a binary scale (0=absent, 1=present). Secondary Outcome Measures: • 1. […] [Time Frame: 2 hours-24 hours post-dose] • Sustained Pain Freedom as measured by a 4 point numeric rating scale (None, Mild, Moderate, Severe) • 2. Rimegepant (75 mg tablet) compared to placebo by tabulating the number of subjects that report the absence of photophobia at 2 hours post-dose in the subset of subjects that reported the presence of photophobia at headache baseline. [Time Frame: 2 hours post-dose] • Freedom from Photophobia • 3. Rimegepant (75 mg tablet) compared to placebo by tabulating the number of subjects that report the absence of phonophobia at 2 hours post-dose in the subset of subjects that reported the presence of phonophobia at headache baseline. [Time Frame: 2 hours post-dose] • Freedom from Phonophobia • 4. To measure rimegepant (75 mg tablet) compared to placebo on Pain Relief, at 2 hours post-dose, that report a pain level of moderate or severe at baseline and then report a pain level of none or mild. [Time Frame: 2 hours post-dose] • Pain Relief as measured by a 4 point numeric rating scale (None, Mild, Moderate, Severe) • 5. Freedom from Nausea will by tabulating the number of subjects that report the absence of nausea at 2 hours post-dose in the subset of subjects that reported the presence of nausea at headache baseline. [Time Frame: 2 hours post-dose] • Freedom from Nausea • 6. To measure rimegepant (75 mg tablet) compared to placebo on the probability of requiring rescue medication will be assessed using the number of subjects that take rescue medication within […] administration of study medication (BHV3000 or placebo). [Time Frame: up to 24 hours post-dose] • Requiring Rescue Medication • 7. […] [Time Frame: 2 hours-48 hours post-dose] • Sustained Pain Freedom as measured by a 4 point numeric rating scale (None, Mild, Moderate, Severe) • 8. […] [Time Frame: 2 hours-24 hours post-dose] • Sustained Pain Relief as measured by a 4 point numeric rating scale (None, Mild, Moderate, Severe) • 9. […] [Time Frame: 2 hours-48 hours post-dose] • Sustained Pain Relief as measured by a 4 point numeric rating scale (None, Mild, Moderate, Severe) • 10. […]

[1] = Study 302, single 75 mg tablet, listed as rimegepant

N[C@@H]1c2cccnc2[C@H](OC(=O)N2CCC(n3c(=O)[nH]c4ncccc43)CC2)CC[C@H]1c1cccc(F)c1F [Rimegepant, [(5S,6S,9R)-5-amino-6-(2,3-difluorophenyl)-6,7,8,9-tetrahydro-5H-cyclohepta[b]pyridin-9-yl] 4-(2-oxo-3H-imidazo[4,5-b]pyridin-1-yl)piperidine-1-carboxylate]
SAEs related to the study drug (Study 302): No SAEs | bilirubin elevations greater than 2 times ULN (Study 302): no bilirubin elevations | transaminase level greater than 3 times ULN (Study 302): No subject | AE urinary tract infection (Study 302, 8/543): 1.5% | AE nausea (Study 302, 10/543): 1.8% | Serum ALT or AST levels greater than ULN (Study 302, 13/543): 2.4% | Percent (%) difference of Patients Pain Free: Rimegepant versus Placebo (Study 302, 2 hours post single dose 75 mg): 7% | Percent (%) difference of Patients Pain Free: Rimegepant versus Placebo (Study 302, 3 hours post single dose 75 mg): 13% | Percent (%) difference of Patients Pain Free: Rimegepant versus Placebo (Study 302, 4 hours post single dose 75 mg): 19% | Percent (%) difference of Patients Pain Free: Rimegepant versus Placebo (Study 302, 6 hours post single dose 75 mg): 22% | Percent (%) difference of Patients Pain Free: Rimegepant versus Placebo (Study 302, 8 hours post single dose 75 mg): 19% | functional disability: patients achieving normal function at 2 hours versus placebo (Study 302, P<0.0001): greater proportion | Serious AEs (SAEs), subjects (Study 302, back pain): 1 subject | Free from MBS at 2 hours, subjects [n/N] (Study 302, single 75 mg tablet): [202/537] | Nausea-free at 2 hours (Study 302, single 75 mg tablet): 48.1% | Nausea-free at 2 hours, subjects [n/N] (Study 302, single 75 mg tablet): [171/355] | Pain relief at 2 hours (Study 302, single 75 mg tablet): 58.1% | Pain relief at 2 hours, subjects [n/N] (Study 302, single 75 mg tablet): [312/537] | Pain-free at 2 hours, subjects [n/N] (Study 302, single 75 mg tablet): [105/537] | Phonophobia-free at 2 hours (Study 302, single 75 mg tablet): 36.7% | Phonophobia-free at 2 hours, subjects [n/N] (Study 302, single 75 mg tablet): [133/362] | Photophobia-free at 2 hours (Study 302, single 75 mg tablet): 37.4% | Photophobia-free at 2 hours, subjects [n/N] (Study 302, single 75 mg tablet): [183/489] | Sustained pain relief, 2-24 hours (Study 302, single 75 mg tablet): 42.6% | Sustained pain relief, 2-24 hours, subjects [n/N] (Study 302, single 75 mg tablet): [229/537] | Freedom from MBS at 2 hours (Study 302, single 75 mg tablet): 37.6% | Pain Freedom (pain-free) at 2 hours (Study 302, single 75 mg tablet): 19.6% | Freedom from MBS at 2 hours [1]: 37.6% | Pain Freedom (pain-free) at 2 hours [1]: 19.6% | Pain relief at 2 hours [1]: 58.1% | sustained pain relief from 2 through 48 hours postdose versus placebo (Study 302, single dose, no rescue medication, P<0.0001): superiority versus placebo | sustained pain freedom from 2 through 48 hours postdose versus placebo (Study 302, single dose, no rescue medication, P=0.0181): superiority versus placebo
